Patent US10478482B2, “Vaccines for prevention and treatment of tuberculosis” (ALARUM DEVELOPMENT LTD, priority 2011, dated 2019)

Key:
[1] = system: serum from patients with TB; assay: Antibody recognition of peptides by serum from patients with TB; format: binding, human; details: for Average int. / N. of slide (frequency of recognition): serum from the group TB; for N. of slide (frequency of recognition): out of 9 individuals
From the text: (§1) Serum was obtained from patients with sarcoidosis (FIG. 4A) and from patients with TB (FIG. 4B). The number indicate the frequency of recognition, e.g. 1/9 individuals up to 9/9 individuals. The listed peptides are only listed if they are present in one group (sarcoidosis versus tuberculosis) and if the peptide is never recognized in any serum from the respective control group. […] Strong IgG response requires strong T-cell help which lends support that these antigens are also recognized by T-cells.

[2] = system: serum from patients with sarcoidosis; assay: Antibody recognition of peptides by serum from patients with sarcoidosis; format: binding, human; details: for Average int. / N. of slide (frequency of recognition): serum from the group sarcoidosis; for N. of slide (frequency of recognition): out of 9 individuals
From the text: as §1

peritoneal macrophages = assay: Cytokine induction in peritoneal macrophages; format: cell-based, mouse; details: FIG. 10
[3] = system: IFNγ production in freshly harvested Heparin-blood; format: cell-based, human
PBMCs = format: cell-based, monkey

Substance | Average int. [1] | N. of slide (frequency of recognition) [1] | Average int. [2] | N. of slide (frequency of recognition) [2] | other results
AAGNNVTVFGYSQSA [CAE55427-PPE family protein_289] | 0.4545 | 6 |  |  | 
APALMDVEAAYEQMW [CAE55281-PPE family protein_133] |  |  | 1.6787 | 9 | 
AWVSRGAHKLVGALE [CAB10951-cytotoxin haemolysin homologue TLYA_61] | 0.7175 | 7 |  |  | 
GGGNTGSGNIGNGNK [CAE55613-PPE family protein_193] |  |  | 1.2266 | 9 | 
GLYQVVPGIYQVRGF [CAA18084-possible hydrolase_85] | 0.5432 | 8 |  |  | 
GSSAMILAAYHPQQF [CAB10044-secreted antigen 85-B FBPB (85B)A_169] |  |  | 0.6077 | 9 | 
LSGDNQQGFNFAGGW [CAE55276-PPE family protein_1117] |  |  | 1.6435 | 9 | 
MTAPVWLASPPEVHS [CAE55538-PPE family protein_1] | 0.8461 | 8 |  |  | 
NANFGGGNGSAFHGQ [CAE55320-PPE family protein_205] |  |  | 1.4131 | 9 | 
NTGSYNMGDFNPGSS [CAE55416-PPE family protein_385] | 0.9479 | 7 |  |  | 
Possible glycosyltransferase [CAB05419/Rv2957] |  |  |  |  | recognition by serum from the group sarcoidosis (in words) [2]: never; induction of IL-10 (peritoneal macrophages): little induction; induction of IL-12 (peritoneal macrophages): Strong induction; induction of TGF-β (peritoneal macrophages): Strong induction; induction of TN-Fa (peritoneal macrophages): little induction; recognition by serum from the group TB (in words) [1]: most frequently recognized; antigen-specific T-cell responses (IFNγ) [3]: can be detected; intracellular cytokines, here represented by IL-2 (PBMCs): Detection of intracellular cytokines
QWILHMAKLSAAMAK [CAA17973-conserved hypothetical alanine and_193] | 0.4333 | 6 |  |  | 
SSGKPGRDPEAGRYG [CAB02482-probable lipase lipe_385] |  |  | 1.3190 | 9 | 
TRLGIRLVIVLVRRW [CAB05419-possible glycosyl transferase_241] | 0.9264 | 9 |  |  | 
VIGGIGPIHVQPIDI [CAE55585-PPE family protein_865] |  |  | 0.7433 | 9 | 
